Measurements reported in US11220527B2, “Peptides derived from the propeptide NTSR3 and their use in the treatment of depression” (CENTRE NATIONAL DE LA RECHERCHE SCIENTIFIQUE, priority 2016, dated 2022).
Where no end group is shown, it is not given here.

Target: T1, TREK-1 channel (Homo sapiens, UniProt O95069)
T1 sequence (O95069 1-426): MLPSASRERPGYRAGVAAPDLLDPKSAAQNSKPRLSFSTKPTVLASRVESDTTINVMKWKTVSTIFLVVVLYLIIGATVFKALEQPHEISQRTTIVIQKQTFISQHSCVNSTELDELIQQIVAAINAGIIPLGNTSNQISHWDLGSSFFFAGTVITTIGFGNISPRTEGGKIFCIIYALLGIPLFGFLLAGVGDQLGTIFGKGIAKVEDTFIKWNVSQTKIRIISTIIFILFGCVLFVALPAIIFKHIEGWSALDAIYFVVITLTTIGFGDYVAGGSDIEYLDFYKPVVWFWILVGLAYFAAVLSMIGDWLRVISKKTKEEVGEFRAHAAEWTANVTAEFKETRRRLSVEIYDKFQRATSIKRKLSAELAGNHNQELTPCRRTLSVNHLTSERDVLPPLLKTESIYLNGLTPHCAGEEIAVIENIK
Assay: Whole-cell patch clamp of TREK-1 channel activity in hTREK-1/HEK293 cells
Type: cell-based
Design: expressed in transfected cells
Conditions: dose-response measured at 0 mV, sigmoidal fit, FIG. 2; read-out: half-effect concentration (IC50) of TREK-1 channel activity inhibition
Procedure: All experiments measuring the effect of spadin analogs and spadin were performed on ßTC3 or LNCaP or HEK293 cells stably transfected with the TREK-1 channel, hTREK-1/HEK293. The hTREK-1/HEK293 cell line was prepared in the laboratory. These cells also express a reporter gene: E-Green Fluorescent Protein (EGFP) enabling their visualization.
These cells were seeded at a density of 20,000 cells/dish of 35 mm diameter, 24 to 72 hours before being used.
The HEK293 cells were cultured in DMEM medium (Gibco)/10% fetal calf serum (FCS, ICN)/1% streptomycin+penicillin mixture (Gibco)/1% glutamax (Gibco)/0.5 mg/mL of G418 (Sigma) at 37° C. in the presence of 5% CO2.
The LNCaP cells were cultured in DMEM medium (Gibco)/10% fetal calf serum (FCS, ICN)/1% streptomycin+penicillin mixture (Gibco)/1% glutamax (Gibco)/at 37° C. in the presence of 5% CO2. […] From day 2 to day 4, the cells were measured by electrophysiological methods.
All measurements were made at room temperature, i.e. at 21-22° C. The hTREK-1/HEK293 cells were identified by the fluorescence emitted by EGFP after excitation at 480 nm. […]
The cell culture medium was replaced with a solution 150 mM NaCl, 5 mM KCl, 3 mM MgCl2, 1 mM CaCl2, 10 mM HEPES/NaOH pH 7.4 containing 10 mM tetraethylammonium chloride, 3 mM 4-aminopyridine. […] The resting potential of the membrane of the measured cell was set at −80 mV. […]

**Q.** AVSWGLR [G/A-PE(22-28), AVSWGLR] was tested. Which IC50 did it give?
**A.** Its IC50 is 120 pM.
